One data set concerns the target T1, FXR (Homo sapiens, UniProt Q96RI1).
T1 construct: expressed in transfected cells; host or cells: HEK293T
T1 sequence (Q96RI1 1-486): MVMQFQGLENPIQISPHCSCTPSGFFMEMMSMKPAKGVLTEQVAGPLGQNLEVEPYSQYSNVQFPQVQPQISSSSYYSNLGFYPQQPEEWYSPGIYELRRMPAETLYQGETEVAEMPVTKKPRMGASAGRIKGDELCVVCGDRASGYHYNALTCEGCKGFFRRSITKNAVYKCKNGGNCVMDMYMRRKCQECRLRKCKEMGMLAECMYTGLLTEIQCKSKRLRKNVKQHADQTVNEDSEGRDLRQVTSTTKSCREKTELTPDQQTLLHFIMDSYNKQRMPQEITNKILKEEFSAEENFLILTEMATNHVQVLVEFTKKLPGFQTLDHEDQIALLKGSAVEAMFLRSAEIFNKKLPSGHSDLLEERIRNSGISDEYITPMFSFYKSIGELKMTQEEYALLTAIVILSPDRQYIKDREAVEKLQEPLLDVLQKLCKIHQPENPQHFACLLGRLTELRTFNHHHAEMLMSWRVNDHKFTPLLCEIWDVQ
T1 sequence (P19793 1-462 partner): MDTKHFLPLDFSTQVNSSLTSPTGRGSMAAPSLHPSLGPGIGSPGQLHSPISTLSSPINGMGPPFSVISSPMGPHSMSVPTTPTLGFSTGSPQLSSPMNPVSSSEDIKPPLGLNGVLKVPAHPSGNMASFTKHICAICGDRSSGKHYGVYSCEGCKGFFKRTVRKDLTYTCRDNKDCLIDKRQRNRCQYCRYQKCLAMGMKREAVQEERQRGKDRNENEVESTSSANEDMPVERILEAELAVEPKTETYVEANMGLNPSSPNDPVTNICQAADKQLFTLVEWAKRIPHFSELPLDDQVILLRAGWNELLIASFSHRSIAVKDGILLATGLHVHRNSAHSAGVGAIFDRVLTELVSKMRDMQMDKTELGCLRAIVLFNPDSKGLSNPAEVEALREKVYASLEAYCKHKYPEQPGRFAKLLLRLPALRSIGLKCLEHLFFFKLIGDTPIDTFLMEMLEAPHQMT
Description: FXR transcriptional activation, Dual-Luciferase Reporter Assay in HEK293T cells. The format is cell-based. How it is done:
The phFXR, phRXR (retinoid X receptor) and FXR-dependent reporter (EcRE-LUC) were expressed and cotransfected with the Gal4 reporter vector MH100 × 4-TK-Luc, then 1 μg of the relevant plasmid was combined with 1 μg of reporter plasmids and 0.1 μg of pREP7 (Renilla Luciferase) reporter, which was used to normalize transfection efficiencies. HEK293T cells were dispensed into 96 well plates using a volume of 100 μL and 1 × 10^5 cells per well.
Background: In a reporter assay the amount or activity of a reporter protein is the signal.

On the set-up of data set [1]: method as in Liu et al. (2022). The conditions noted are these: oral administration of Qingfei Paidu Decoction, ref Liu et al. (2022); cited from earlier work.
The next data set relates to AB23A hydrolysis in HIMs. Description: Chemical inhibition assay of AB23A hydrolysis in HIMs. The format is biochemical, human. The settings on record: BNPP 50 μM, LPA 100 μM.
For the next data set, the system named is AB23A hydrolysis in HLMs. Description: Chemical inhibition assay of AB23A hydrolysis in HLMs. Format: biochemical, human. The settings on record: HLMs 0.1 mg/mL, AB23A 20 μM, 1 h; BNPP 50 μM, LPA 100 μM, GA 100 μM, boceprevir 20 μM, EDTA 20 μM. How it is done: (§1) The inhibitory effects of a series of selective inhibitors of human hydrolases against AB23A hydrolysis were assessed. The selective inhibitors of human hydrolases including BNPP (50 μM, a specific inactivator of CES), boceprevir (20 μM, a potent inhibitor for CTSA), LPA (100 μM, a selective inhibitor for CES2A), GA (100 μM, a cholinesterase inhibitor), EDTA (20 μM, a selective PONs inhibitor). The incubation system included PBS, inhibitors, HLMs (0.1 mg/mL)/human plasma (25% dilution), and AB23A (20 μM). After reacting for 1 h, ice-cold acetonitrile was used to terminate the reaction. The supernatants by centrifuging were used to quantify the formation rates of AB by LC-UV analysis.

Data set [2] deals with AB23A hydrolysis in human plasma. Description: Chemical inhibition assay of AB23A hydrolysis in human plasma. Format: biochemical. The settings on record: human plasma 25% dilution, AB23A 20 μM, 1 h; GA 100 μM, boceprevir 20 μM, EDTA 20 μM. How it is done: as §1
Data set [3] concerns T2, CC(=O)O[C@H](C[C@@H](C)C1=C2C[C@H](O)C3[C@@]4(C)CCC(=O)C(C)(C)C4CC[C@]3(C)[C@@]2(C)CC1)[C@H]1OC1(C)C.
T2 construct: purchased Sigma-Aldrich Lot#SLCC9268
Description: Kinetic analysis of AB23A hydrolysis in hSA. The format is in vitro ADME, human. The settings on record: other: hSA. How it is done:
(§2) The enzymatic kinetics of AB23A hydrolysis in different tissue preparations (HLMs, HIMs, human plasma) and human recombinant enzymes (hCES1A, hCES2A, hSA, hBchE) were analyzed. The incubation system (200 μL) consisted of PBS, each tested enzyme, and AB23A (ranging from 0 to 1,000 μM). After incubating for 1 h, the supernatants were then used for LC-UV analysis. The kinetic parameters of AB23A hydrolysis were fitted by the following Michaelis−Menten Eq. 1 ([Zhang et al., 2022]). V=(Vmax×[S])⁄(Km+[S]) (1) Here, K m is the Michaelis constant of AB23A hydrolysis, V max is the maximum velocity of AB23A hydrolysis, V max /K m is used to calculate the intrinsic clearance (CL int ).

Substrate in data set [4]: CC(=O)O[C@H](C[C@@H](C)C1=C2C[C@H](O)C3[C@@]4(C)CCC(=O)C(C)(C)C4CC[C@]3(C)[C@@]2(C)CC1)[C@H]1OC1(C)C
Description: Kinetic analysis of AB23A hydrolysis in hCES2A. The format is in vitro ADME, human. The conditions noted are these: other: hCES2A. How it is done: as §2

Substrate in data set [5]: CC(=O)O[C@H](C[C@@H](C)C1=C2C[C@H](O)C3[C@@]4(C)CCC(=O)C(C)(C)C4CC[C@]3(C)[C@@]2(C)CC1)[C@H]1OC1(C)C
Description: Kinetic analysis of AB23A hydrolysis in hCES1A. Format: in vitro ADME, human. The conditions noted are these: other: hCES1A. How it is done: as §2

The Vmax is the top rate of the reaction or transport when substrate is in excess.

On to `C[C@H](C[C@H](O)[C@H]1OC1(C)C)C1=C2C[C@H](O)[C@H]3[C@@]4(C)CCC(=O)C(C)(C)[C@@H]4CC[C@]3(C)[C@@]2(C)CC1` [AB, alisol B], for which, at FXR (HEK293T cells, 5, 10, 20 μM, 48 h, GW4064 (10 μM) set at 100%), the “FXR agonist effect (transcriptional activation)” value is listed as “dose-dependently agonize FXR”. Moreover, the “FXR activation compared with AB23A” value on FXR (HEK293T cells, low doses (5 and 10 μM)) was “slightly more potent than AB23A”. In addition, the “Detection in mice plasma and liver” value in data set [1] is given as “readily detected”.

`O=[N+]([O-])c1ccc(OP(=O)(O)Oc2ccc([N+](=O)[O-])cc2)cc1` [BNPP, bis(p-nitrophenyl) phosphate]: the “Effect on formation of AB (AB23A hydrolysis) in HIMs” value in the data set on AB23A hydrolysis in HIMs is on record as “near-completely inhibited”. The “Effect on AB23A hydrolysis in HLMs” value in the data set with AB23A hydrolysis in HLMs is “completely blocked”.

Take `O=C(O)CN(CCN(CC(=O)O)CC(=O)O)CC(=O)O` [EDTA, Ethylenediaminetetraacetic acid]: the “Effect on formation of AB (AB23A hydrolysis) in human plasma” value (“Effect on formation … in human plasma” below) in data set [2] is given as “negligible effects”. In addition, the “Effect on AB23A hydrolysis in HLMs” value in the data set with AB23A hydrolysis in HLMs is listed as “negligible effects”.

`COc1ccc2c3c1O[C@H]1C[C@@H](O)C=C[C@@]31CCN(C)C2` [GA, galanthamine]: the “Effect on formation … in human plasma” value in data set [2] is “significantly inhibit”. The “Effect on AB23A hydrolysis in HLMs” value with AB23A hydrolysis in HLMs is “slightly blocked”.

On to `CN(C)C(=O)C(CCN1CCC(O)(c2ccc(Cl)cc2)CC1)(c1ccccc1)c1ccccc1` [LPA, Loperamide], for which, in the data set on AB23A hydrolysis in HIMs, the “Effect on formation of AB (AB23A hydrolysis) in HIMs” value is on record as “partially inhibit”. The “Effect on AB23A hydrolysis in HLMs” value in the data set on AB23A hydrolysis in HLMs is on record as “slightly blocked”.

With `CC(C)(C)NC(=O)N[C@H](C(=O)N1C[C@H]2[C@@H]([C@H]1C(=O)NC(CC1CCC1)C(=O)C(N)=O)C2(C)C)C(C)(C)C` (stereo partly shown) [boceprevir, Boceprevir], in data set [2], the “Effect on formation … in human plasma” value is “negligible effects”. The “Effect on AB23A hydrolysis in HLMs” value in the data set with AB23A hydrolysis in HLMs is “negligible effects”.

Consider hSA (Homo sapiens), for which, in data set [3], the Vmax was 0.0004 µmol/min/mg and the Vmax/Km came to 1.53 µL/min/mg.

B1: hCES2A (Homo sapiens) (protein)
chain: QDSASPIRTTHTGQVLGSLVHVKGANAGVQTFLGIPFAKPPLGPLRFAPPEPPESWSGVRDGTTHPAMCLQDLTAVESEFLSQFNMTFPSDSMSEDCLYLSIYTPAHSHEGSNLPVMVWIHGGALVFGMASLYDGSMLAALENVVVVIIQYRLGVLGFFSTGDKHATGNWGYLDQVAALRWVQQNIAHFGGNPDRVTIFGESAGGTSVSSLVVSPISQGLFHGAIMESGVALLPGLIASSADVISTVVANLSACDQVDSEALVGCLRGKSKEEILAINKPFKMIPGVVDGVFLPRHPQELLASADFQPVPSIVGVNNNEFGWLIPKVMRIYDTQKEMDREASQAALQKMLTLLMLPPTFGDLLREEYIGDNGDPQTLQAQFQEMMADSMFVIPALQVAHFQCSRAPVYFYEFQHQPSWLKNIRPPHMKADHGDELPFVFRSFFGGNYIKFTEEEEQLSRKMMKYWANFARNGNPNGEGLPHWPLFDQEEQYLQLNLQPAVGRALKAHRLQFWKKALPQKIQELEEPEERHTEL
notes: 10xHis; made in house; host or cells: HEK293-F cells, pTT5 vector, purified from conditioned medium
Turning to B1, in data set [4], the Vmax amounted to 0.0125 µmol/min/mg and the Vmax/Km stood at 212 µL/min/mg.

B2: hCES1A (Homo sapiens) (protein)
chain: GHPSSPPVVDTVHGKVLGKFVSLEGFAQPVAIFLGIPFAKPPLGPLRFTPPQPAEPWSFVKNATSYPPMCTQDPKAGQLLSELFTNRKENIPLKLSEDCLYLNIYTPADLTKKNRLPVMVWIHGGGLMVGAASTYDGLALAAHENVVVVTIQYRLGIWGFFSTGDEHSRGNWGHLDQVAALRWVQDNIASFGGNPGSVTIFGESAGGESVSVLVLSPLAKNLFHRAISESGVALTSVLVKKGDVKPLAEQIAITAGCKTTTSAVMVHCLRQKTEEELLETTLKMKFLSLDLQGDPRESQPLLGTVIDGMLLLKTPEELQAERNFHTVPYMVGINKQEFGWLIPMQLMSYPLSEGQLDQKTAMSLLWKSYPLVCIAKELIPEATEKYLGGTDDTVKKKDLFLDLIADVMFGVPSVIVARNHRDAGAPTYMYEFQYRPSFSSDMKPKTVIGDHGDELFSVFGAPFLKEGASEEEIRLSKMVMKFWANFARNGNPNGEGLPHWPEYNQKEGYLQIGANTQAAQKLKDKEVAFWTNLFAKKAVEKPPQTE
notes: as for B1
Consider B2, for which, in data set [5], the Vmax came out at 0.0235 µmol/min/mg and the Vmax/Km was found to be 123 µL/min/mg.
